In patent US20260283990A1, “COMPOUNDS FOR TREATING RETT SYNDROME AND OTHER DISORDERS” (UNRAVEL BIOSCIENCES, INC., priority 2023, published 2026):
Entries after “also recorded” stand apart in the source; their conditions may differ. Read-outs that look alike come from different tables or passages of the source. Square brackets hold non-standard residues; d marks the D form. Peptide text beside a SMILES is read from it. αMeP = C[C@@]1(C(=O)O)CCCN1

Key:
[1] = Pharmacokinetic study in C57BL/6J mice (plasma and tissues); type: in vivo
RTT tadpoles (MeCP2 KD) = test: Tadpole tracking system: swimming behavior of RTT (MeCP2 KD) tadpoles; type: in vivo, Xenopus; details: for swimming pattern of treated RTT tadpoles: n=5 per dish
Method: FIGS. 4A-4F. FIG. 4A) Occupation density plot from tracking tadpoles swimming and resting locations over a 10-minute recording session (n=5 per 10 ml dish, at 30 frames per seconds), where high density means the tadpoles where recorded at that XY coordinate most frequently. FIG. 4A) wild-type tadpoles (WT) normal behavior is to swim along the edge of the dish in an area termed the “outer area”, while the area within the white center circle is termed the “inner area” and is mostly dark. […] Additionally, RTT tadpoles cover less distance in the outer area, preferring to cross the inner area. FIG. 4C) example of multiple parameters derived from the tracking system, highlighting metrics corresponding to behavioral phenotypes. FIG. 4D) one such metric of epoch-based entropy which captures information about the swimming behavior over a recording session and how a group diverges from the others, in this case indicating favorable improvement in RTT tadpole symptoms treated with RVL002 (epoch=15-second). FIG. 4E) one such metric is the inner area circular swimming. Locomotor assays is commonly used in mouse model of neurological diseases, it can also assess the behavior in tadpole models. Both vorinostat and RVL002 reduced the average inner dish circular swimming behavior in KD tadpoles compared to vehicle controls.
(§1) Briefly, Xenopus embryos at the 4-cell stage were microinjected with Cas9 protein and guide RNA complex aimed at 3 sites of the MeCP2 gene corresponding to DNA binding and the mutation locations of the most severe patient cases. Embryos could develop into free-swimming tadpoles, and no effect on viability was observed relative to controls. Tadpoles presented a spectrum of behavioral phenotypes, including seizures. qPCR analysis confirmed a range of MeCP2 KO of 5-95% of the cells, and immunostaining of tissue sections indicated mosaic and overall reduction of MeCP2 protein levels and a-tubulin acetylation (Novak et al. 2022). Based on seizure and behavioral screens in RTT tadpoles, we evaluate the tolerability and efficacy of any number of predicted compounds. The top performing drug is vorinostat, a hydroxamic acid pan-Histone Deacetylase inhibitor (HDACi), approved for cutaneous T cell lymphoma (Novak et al., 2022). […] These six scores are then summed to provide a cumulative severity score from 0-12 (Guy et al., 2001, 2007).
(§2) Using our tadpole tracking system, we evaluated the effect of vorinostat and RVL002 on WT and RTT tadpoles swimming behavior (FIGS. 4A-4F). WT tadpoles spend most of the time swimming along the outside of the dish and only occasionally cross through the center of the dish, while RTT tadpoles swim more erratically and tend to dart through the center of the dish and stop more frequently (FIG. 4A-4B, n=5 per dish). These abnormal swimming patterns could be related to motor irregularities and seizures seen in human RTT patients. […] The entropy captures deviations in swimming behavior, including distance and area explored. […] We compared the gene expression signatures of vorinostat- and RVL002-treated tadpole RTT model animals and wild type controls. In wild type animals, 100% of genes with significant expression changes (fold change >2, p<0.05) due to vorinostat treatment were accounted for by RVL002 treatment. In RTT animals, RVL002 replicated 92.5% of gene expression changes.

RTT tadpoles = test: Viability measurement in WT and RTT tadpoles; type: in vivo, Xenopus; details: RVL002 100 uM compared with vorinostat 50 uM, n=10 per condition
[2] = test system: tadpole RTT model animals and wild type controls; test: Gene expression signatures of vorinostat- and RVL002-treated tadpoles; type: in vivo, Xenopus
From the text: as §2

HDAC = test: HDACi activity (statement, no method)
MeCP2-/y mice [3] = test: Rett cumulative severity score in MeCP2-/y mice treated with RVL002; type: in vivo; details: 50 mg/kg P.O. daily after onset of severe symptoms (P34), vs vehicle
Method: (§3) FIGS. 5A-5B. Mice (KO MeCP2^−/y or WT littermates) were treated with 50 mg/kg P.O. RVL002 daily following the onset of severe symptoms at 34 days post-natal (P34).
(§4) Briefly, Xenopus embryos at the 4-cell stage were microinjected with Cas9 protein and guide RNA complex aimed at 3 sites of the MeCP2 gene corresponding to DNA binding and the mutation locations of the most severe patient cases. Embryos could develop into free-swimming tadpoles, and no effect on viability was observed relative to controls. Tadpoles presented a spectrum of behavioral phenotypes, including seizures. qPCR analysis confirmed a range of MeCP2 KO of 5-95% of the cells, and immunostaining of tissue sections indicated mosaic and overall reduction of MeCP2 protein levels and a-tubulin acetylation (Novak et al. 2022). Based on seizure and behavioral screens in RTT tadpoles, we evaluate the tolerability and efficacy of any number of predicted compounds. The top performing drug is vorinostat, a hydroxamic acid pan-Histone Deacetylase inhibitor (HDACi), approved for cutaneous T cell lymphoma (Novak et al., 2022). […]
Mice (MeCP2-/y or WT littermates) were treated with 50 mg/kg P.O. RVL002 daily following the onset of severe symptoms as determined by the Rett cumulative severity scoring system (Guy et al., 2001, 2007).

MeCP2-/y mice [4] = test: Optomotor assay in MeCP2-/y mice treated with RVL002; type: in vivo; details: 50 mg/kg P.O. daily from P34
Method: as §3

mecp2-acss3-2KD tadpoles = test: Tadpole tracking: double knockdown of MeCP2 and ACSS3 (mecp2-acss3-2KD); type: in vivo, Xenopus laevis; details: 50 μM every other day from 6 dpf, recorded at 15 dpf
Method: FIGS. 6A-6C. […] Wild-type (WT), MeCP2 knockdown (mecp2-KD) and double knockdown of MeCP2 and ACSS3 (mecp2-acss3-2KD) tadpoles, were compared in the presence of absence of 50 μM RVL002 added to the swimming media every other day since 6 dpf.
Using our tadpole tracking system, we evaluated the effect of RVL002 on WT, RTT and tadpoles deficient for both MeCP2 and ACSS3 (FIGS. 6A-6C).

[5] = test system: brain and muscle gene networks and pathways; test: RNAseq of brain and muscle of dosed mice analysed with BioNav / Reactome; type: in vivo, C57B/L6 mice
Method: FIGS. 2A-2B. BioNav™ plots organized by chemical structure similarity of 40,000 compounds. Differential scores of predicted drugs mimicking vorinostat- or RVLOO2-dosed mouse brain (FIG. 2A) or femoral muscle (FIG. 2B) are plotted. Cluster of HDAC inhibitors is circled (FIG. 2B).
FIGS. 3A-3E. […] Genes associated with network level changes in mice treated with vorinostat or RVL002 were analyzed and sorted according to Reactome.org pathways (91). RVL002 engages pathways in the brain and muscle tissues similar to those resulting from vorinostat dosing (FIG. 3A). […] RVL002 engages MeCP2 pathways in the brain and muscle tissues (FIG. 3E).
Brain and muscle tissues from these mice were submitted to RNA sequencing (RNAseq) and analyzed on our BioNav™ generated from the network model of 40,000 compounds with transcriptomic data. […] By taking our calculated interacting gene sets we identified genes and networks unique to RVL002 (FIGS. 3A-3E). The gene expression profiles of the brains of mice treated with vorinostat is largely due to its highly brain-permeable metabolite and this profile is closely mimicked by RVL002 while RVL002 increased bioavailability and biodistribution is reflected in a proportionally more extensive number of genes whose expression levels are altered. The top 4 pathways are associated with MeCP2 despite using wild-type C57B/L6 mice (Table 2), and several other pathways associated with MeCP2 are identified, albeit with lower statistical significance (Table 3).

RTT tadpole model = test: Drug screen in the RTT tadpole model (behavior, survival, seizures, toxicity); type: in vivo, Xenopus; details: seizures as readout
From the text: as §1
RTT tadpole transcriptomes were compared against wild-type (WT) sibling transcriptomes using our proprietary BioNav™ software, which ranked the entirety of compounds from the National Institute of Health (NIH) Library of Integrated Network-Based Cellular Signatures (LINCS) database (Keenan et al., 2018) that were predicted to shift a RTT state to a healthy state. The top candidates were downselected to include only FDA-approved drugs and screened in the RTT tadpole model using behavior, survival, and seizures as an efficacy readout, together with toxicity phenotypes. […] Vorinostat was selected for more detailed evaluation in tadpoles and mouse models. […] Ciliary morphology was also normalized by drug treatment across the entire body, and vorinostat reduced Ib4+ inflammatory cells in the GI tract (Novak et al., 2022).

Mecp2-null male mice [6] = details: cited from earlier work; for Rett cumulative severity score, head-to-head comparison: older mice with extensive symptoms prior to treatment; for efficacy when starting treatment after the onset of symptoms: start P36
Mecp2-null male mice [7] = test: Vorinostat and trofinetide in the MeCP2-null mouse model; type: in vivo; details: daily IP from P30
From the text: as §4
Using trofinetide as a positive control, we evaluated the feasibility of initiating drug dosing starting at 30 days post-natal (P30), unlike the majority of RTT pre-clinical studies starting before the onset of symptoms. […] We evaluated the comparative efficacy of oral vs. IP dosing of vorinostat in MeCP2-null mice starting at 36 days post-natal (P36), well after the onset of symptoms, to better mimic clinical presentation of RTT patients.

[8] = Pharmacokinetic (PK) assay of vorinostat, oral vs. IP; type: in vivo
microtubule = test: Microtubule polymerization assays; type: biochemical
[9] = test system: RTT models (MeCP2 deficit); details: cited from earlier work
tadpole proteome = details: whole organism Thermal Proteome Profiling; cited from earlier work

O=C(O)CCC(=O)Nc1ccccc1 [RVL002, succinanilic acid]
RVL002/vorinostat Ratio of T1/2 ([1]; mouse, in vivo): 2.6 | RVL002/vorinostat Ratio of Tmax ([1]; mouse, in vivo): 0.8 | biodistribution, crossing the blood brain barrier ([1]; mouse, in vivo, 50 mg/kg): better biodistribution including in crossing the blood brain barrier | AUC(0-inf) ([1]; mouse, in vivo, ip, 50 mg/kg): 11600 ng·h/mL | AUC(0-t) ([1]; mouse, in vivo, ip, 50 mg/kg): 11800 ng·h/mL | Cmax ([1]; mouse, in vivo, ip, 50 mg/kg): 12300 ng/mL | Tmax ([1]; mouse, in vivo, ip, 50 mg/kg): 0.3 h | half-life ([1]; mouse, in vivo, ip, 50 mg/kg): 3.3 h | reduction in inner dish circular swimming compared to vehicle dosed KDs (RTT tadpoles (MeCP2 KD); RTT KD tadpoles, 50 μM): 78% | epoch-based entropy of swimming behavior (RTT tadpoles (MeCP2 KD); RTT tadpoles, 15-second epoch): rescue the behavior of RTT tadpoles | swimming pattern of treated RTT tadpoles (RTT tadpoles (MeCP2 KD); RTT tadpoles): adopt more circular motion and stop less frequently | tolerability and viability of RTT tadpoles (RTT tadpoles): well tolerated and improves the viability of RTT tadpoles | gene expression changes of vorinostat replicated by RVL002 ([2]; RTT animals): 92.5% | genes with significant expression changes due to vorinostat treatment accounted for by RVL002 treatment ([2]; wild type animals, fold change >2, p<0.05): 100% | HDACi activity (HDAC): lacks HDACi activity | Rett cumulative severity score (MeCP2-/y mice [3]): delayed the progression in severity of behavioral and physiological phenotypes; also recorded: significantly reduce the severity of the Rett syndrome phenotypes | optomotor assay (MeCP2-/y mice [4]): delayed the progression in severity of behavioral and physiological phenotypes | response across exploratory behavior, swimming velocity and number of tadpoles in a school (mecp2-acss3-2KD tadpoles): did not respond | muscle RNAseq differences in the cluster of HDAC inhibitors (BioNav) ([5]; mouse femoral muscle, 50 mg/kg p.o.): acts through non-HDAC-mediated pathways | Reactome pathways of genes unique/responding to RVL002 ([5]; wild-type mice, brain and muscle (Tables 2, 3)): MeCP2-pathway-mediated effect

C[C@@]1(C(=O)N[C@@H](CCC(=O)O)C(=O)O)CCCN1C(=O)CN [Trofinetide, trofinetide] (H-Gly-[αMeP]-Glu-OH)
reversal of RTT symptoms in RTT tadpole screen (RTT tadpole model): showed efficacy, albeit lower than the predicted drugs | Rett cumulative severity score, head-to-head comparison (Mecp2-null male mice [6]): did not improve the cumulative severity score | efficacy when starting treatment after the onset of symptoms (Mecp2-null male mice [6]; trofinetide): failed to show efficacy

O=C(CCCCCCC(=O)Nc1ccccc1)NO [Vorinostat, vorinostat]
Tmax ([1]; C57BL/6J mice, 50 mg/kg intraperitoneally, mean): 0.3 h | biodistribution, crossing the blood brain barrier ([1]; mouse, in vivo, 50 mg/kg): does not efficiently cross the blood brain barrier | AUC(0-inf) ([1]; mouse, in vivo, ip, 50 mg/kg): 640 ng·h/mL | AUC(0-t) ([1]; mouse, in vivo, ip, 50 mg/kg): 632 ng·h/mL | Cmax ([1]; mouse, in vivo, ip, 50 mg/kg): 713 ng/mL | half-life ([1]; mouse, in vivo, ip, 50 mg/kg): 1.3 h | reduction in average inner dish swimming compared to vehicle dosed KDs (RTT tadpoles (MeCP2 KD); RTT KD tadpoles, 5 μM): 42% | swimming pattern of treated RTT tadpoles (RTT tadpoles (MeCP2 KD); RTT tadpoles): patterns suggestive of darting and seizure are still observed | overlap of vorinostat with RVL002 in HDAC associated pathways ([5]; muscle tissues (FIG. 3D)): 97.3% | reversal of RTT symptoms in RTT tadpole screen (RTT tadpole model): stronger reversal of RTT symptoms at nontoxic concentrations | efficacy by Rett cumulative severity scoring system, 50 vs 100 mg/kg (Mecp2-null male mice [7]): better efficacy at 50 mg/kg | Y-maze performance, brain and GI tubulin acetylation normalization, inflammatory cytokine levels, colon goblet cells inflammation (Mecp2-null male mice [7]; vorinostat vs trofinetide 75 mg/kg): outperformed trofinetide | release profile after oral dosing [8]: more sustained release of vorinostat at lower concentrations | microtubule polymerization (microtubule): mild microtubule polymerization effects | abnormal cilia morphology in the olfactory bulb ([9]; MeCP2 deficit): reversed | Ib4+ inflammatory cells in the GI tract ([9]; RTT models): reduced | a-tubulin acetylation in brain and elsewhere in the body ([9]; RTT models): normalized | efficacy when starting treatment after the onset of symptoms (Mecp2-null male mice [6]; IP delivery): failed to show efficacy | Rett cumulative severity score, head-to-head comparison (Mecp2-null male mice [6]): effective improvement | efficacy when starting treatment after the onset of symptoms (Mecp2-null male mice [6]; oral dosing): improved efficacy | α- and β-tubulins, acetyl CoA synthetase 3, ribosome protein S6 as targets (tadpole proteome): significant, direct targets

ivermectin
reversal of RTT symptoms in RTT tadpole screen (RTT tadpole model): stronger reversal of RTT symptoms at nontoxic concentrations | microtubule polymerization (microtubule): mild microtubule polymerization effects | α- and β-tubulins, acetyl CoA synthetase 3, ribosome protein S6 as targets (tadpole proteome): significant, direct targets
